Data on 7 compounds can be found in patent US11072634B2, “Inhibitors of transglutaminases” (Zedira GmbH, priority 2016, dated 2021).

The structures appear in SMILES notation. Where two headings read alike, the source gives them in different places. *1 amine or outer side, *2 acyl side, *3 side chain or, on linkers, in order; H or OH if unused. Where a SMILES comes first, the peptide text is derived from it. [ ]: non-standard residue; d: D form. The star is where a group is joined. X4 = O=C(CC[C@H](N[*:1])C(=O)[*:2])C(=O)NC1CC1; Isonicotinoyl(3-COOH) = O=C(O)c1cnccc1C(=O)*; Pro(4-oxo) = O=C1CN[C@H](C(=O)O)C1; Chg = N[C@H](C(=O)O)C1CCCCC1; Tle = CC(C)(C)[C@H](N)C(=O)O

By IC50 is commonly meant the midpoint of a concentration-inhibition curve.

In assay [1] the target is T1, recombinant human tissue transglutaminase (rhTG2) (Homo sapiens, UniProt P21980).
T1 construct: purchased Zedira 1022 (so in the source); T022)
T1 sequence (P21980 1-687): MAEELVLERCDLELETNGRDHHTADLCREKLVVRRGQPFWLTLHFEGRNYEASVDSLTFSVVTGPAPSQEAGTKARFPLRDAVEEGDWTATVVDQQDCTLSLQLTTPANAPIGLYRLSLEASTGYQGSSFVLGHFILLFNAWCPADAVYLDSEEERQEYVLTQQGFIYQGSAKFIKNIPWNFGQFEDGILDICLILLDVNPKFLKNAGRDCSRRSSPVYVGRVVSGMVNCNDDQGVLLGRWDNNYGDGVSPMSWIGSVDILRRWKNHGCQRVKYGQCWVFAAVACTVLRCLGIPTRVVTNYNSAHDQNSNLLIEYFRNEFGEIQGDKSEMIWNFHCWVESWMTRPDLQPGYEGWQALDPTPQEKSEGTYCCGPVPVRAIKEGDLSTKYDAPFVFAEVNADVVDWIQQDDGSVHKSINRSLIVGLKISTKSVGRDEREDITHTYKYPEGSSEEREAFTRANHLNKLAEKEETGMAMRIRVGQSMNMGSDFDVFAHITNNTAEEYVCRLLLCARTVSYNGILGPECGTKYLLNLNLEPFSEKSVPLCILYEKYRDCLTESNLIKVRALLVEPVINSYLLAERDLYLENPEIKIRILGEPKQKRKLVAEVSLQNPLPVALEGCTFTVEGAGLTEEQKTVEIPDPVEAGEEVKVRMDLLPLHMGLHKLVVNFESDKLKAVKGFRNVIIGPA
Description: Inhibition of rec. human tissue transglutaminase (fluorescence, Abz-APE(CAD-DNP)QEA-OH). The format is biochemical. An outline of the steps:
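His6-rhTG2 in a master mix (50 mM Tris-HCl pH 7.4, 7.5 mM CaCl2, 150 mM NaCl, 5 mM DTT, 13.4 mM glycine methylester, 50 μM Abz-APE(CAD-DNP)QEA-OH) was added to serially diluted inhibitor. Fluorescence (ex 313/em 418 nm) was followed at 37 °C for 20 min. IC50 came from the 10–20 min slope relative to the 2% DMSO control.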

The target in assay [2] is T2, recombinant human factor XIII A-subunit (rhFXIII-A, plasma transglutaminase) (Homo sapiens, UniProt P00488).
T2 construct: His6; purchased Zedira 1027 (so in the source); T027)
T2 sequence (P00488 39-732 limits assumed): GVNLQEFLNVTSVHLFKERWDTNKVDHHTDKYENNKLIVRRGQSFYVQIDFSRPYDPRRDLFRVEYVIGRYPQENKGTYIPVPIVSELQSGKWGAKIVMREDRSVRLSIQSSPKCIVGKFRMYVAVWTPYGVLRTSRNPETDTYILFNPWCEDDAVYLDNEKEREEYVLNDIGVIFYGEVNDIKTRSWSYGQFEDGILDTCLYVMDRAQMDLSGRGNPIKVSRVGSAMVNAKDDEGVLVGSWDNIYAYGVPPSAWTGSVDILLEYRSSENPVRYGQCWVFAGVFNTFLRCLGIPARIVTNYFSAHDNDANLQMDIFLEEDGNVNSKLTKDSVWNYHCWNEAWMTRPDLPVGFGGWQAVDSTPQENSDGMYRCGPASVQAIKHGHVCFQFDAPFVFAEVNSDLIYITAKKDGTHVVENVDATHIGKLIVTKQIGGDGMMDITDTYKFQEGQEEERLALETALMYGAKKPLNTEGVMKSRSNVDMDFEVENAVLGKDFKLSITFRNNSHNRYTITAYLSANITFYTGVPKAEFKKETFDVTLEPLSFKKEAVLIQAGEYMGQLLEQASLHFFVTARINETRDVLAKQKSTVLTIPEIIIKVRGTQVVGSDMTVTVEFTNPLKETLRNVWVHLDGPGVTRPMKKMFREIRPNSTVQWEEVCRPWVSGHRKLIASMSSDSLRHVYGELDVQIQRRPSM
Description: Inhibition of rec. human coagulation factor XIII (fluorescence, Abz-NE(CAD-DNP)EQVSPLILLK-OH). It counts as biochemical. The settings on record: read-out: IC50 FXIII. The procedure: Method for Inhibition Studies of Rec. Human Coagulation Factor XIII (Plasma Transglutaminase, rhFXIII-A)
50 μg lyophilized His-tagged recombinant human factor XIII A-subunit (His6-rhFXIII, Zedira product 1027) is reconstituted in H2O (volume depends on original volume before lyophilization) resulting in a buffer containing 20 mM Tris-HCl, 150 mM NaCl, 1 mM EDTA, 1 mM DTT, 189 mg/ml maltodextrin, pH=7.5. The rhFXIII stock solution is diluted in buffer (50 mM Tris-HCl, 7.5 mM CaCl2, 150 mM NaCl, pH=7.4) to give a working solution of 59 U/ml (based on the amine-incorporation activity measured using transglutaminase activity assay #1036 (Zedira GmbH), described below).
A 10 mM inhibitor stock solution is prepared in DMSO, and from this a serial 1:2-fold dilution series is prepared also in DMSO. Each of the initial dilutions is subsequently diluted 1:50-fold with buffer (50 mM Tris-HCl, 7.5 mM CaCl2, 150 mM NaCl, pH=7.4) to yield the final working dilutions containing 2% (v/v) DMSO.
15 μl of inhibitor working dilution are added per well of a 96 well microtiter plate. As control, 15 μl of a 2% (v/v) DMSO solution prepared using the buffer mentioned above are added per well.
480 μl of His6-rhFXIII working solution and 120 μl human alpha thrombin (0.5 NIH units/μl) are added to 10.8 ml assay buffer (50 mM Tris-HCl, 7.5 mM CaCl2, 150 mM NaCl, 5 mM DTT, 13.4 mM glycine methylester, 50 μM Abz-NE(CAD-DNP)EQVSPLILLK-OH, (Zedira product A101; patent No.: EP 1781807B1), pH=7.4). From this master-mix solution, 285 μl are added per well containing the inhibitor. Increase in fluorescence is measured using […] and λem=418 nm at 37° C. for 35 min. A slope of the increase in fluorescence between 20 and 30 min is calculated for determination of the IC50 value (inhibitor concentration at which 50% of the initial FXIII activity is blocked).
Analysis of enzymatic activity is performed by calculation of the slope of an increase in fluorescence intensity. IC50 values are calculated by plotting the enzymatic activity (as percentage from control containing 2% DMSO instead of inhibitor) against the inhibitor concentration. IC50 is defined as the inhibitor concentration blocking 50%) of initial enzyme activity.

Where [3] appears, read: Table 1, selectivity with respect to FXIII.

In the case of `CC[C@@H](C)[C@H](NC(=O)[C@H](CCC(N)=O)NC(=O)[C@H](CCC(=O)C(N)=O)NC(C)=O)C(=O)N[C@H](C(N)=O)C(C)C` [Compound E03, (S)-2-acetamido-N1-((S)-5-amino-1-((2S,3R)-1-((S)-1-amino-3-methyl-1-oxobutan-2-ylamino)-3-methyl-1-oxopentan-2-ylamino)-1,5-dioxopentan-2-yl)-5-oxohexanediamide], the IC50 in assay [1] (Table 1, TG2 inhibitors) is 750 nM; in assay [2] (setting [3]), greater than 100000 nM.

Take `CCC(CC)CNC(=O)Cn1cccc(NC(=O)[C@H](CCC(=O)C(=O)NC)NC(=O)c2cncn2C)c1=O` [Compound E16, (S)—N1-(1-(2-(2-ethylbutylamino)-2-oxoethyl)-2-oxo-1,2-dihydropyridin-3-yl)-N6-methyl-2-(1-methyl-1H-imidazole-5-carboxamido)-5-oxonexanediamide]: the IC50 was 50 nM in assay [1] (Table 1, TG2 inhibitors) and greater than 100000 nM in assay [2] (setting [3]).

Take `CC(C)(C)[C@H](NC(=O)[C@H](CCC(=O)C(=O)NC1CC1)NC(=O)c1ccncc1C(=O)O)C(=O)N1CC(=O)C[C@H]1C(=O)N[C@H](C(=O)N[C@H](C(N)=O)C1CCCCC1)C1CCCCC1` [Compound E28, 4-((S)-1-((S)-1-((S)-2-((S)-2-((S)-2-amino-1-cyclohexyl-2-oxoethylamino)-1-cyclo-hexyl-2-oxoethylcarbamoyl)-4-oxopyrrolidin-1-yl)-3,3-dimethyl-1-oxobutan-2-yl-amino)-6-(cyclopropylamino)-1,5,6-trioxohexan-2-ylcarbamoyl)nicotinic acid] ({Isonicotinoyl(3-COOH)}-[X4][Tle][Pro(4-oxo)][Chg][Chg]-NH2): the half-maximal inhibitory concentration (IC50) in assay [2] (Table 3, FXIII inhibitors) stood at 275 nM.

On to `COC(=O)[C@H](CC(C)C)NC(=O)[C@@H]1CCCN1C(=O)[C@@H](NC(=O)[C@H](CCC(=O)C(N)=O)NC(C)=O)C(C)C` [Compound E01, (S)-methyl 2-((S)-1-((S)-2-((S)-2-acetamido-6-amino-5,6-dioxohexanamido)-3-methylbutanoyl)pyrrolidine-2-carboxamido)-4-methylpentanoate], for which the concentration for half-maximal inhibition (IC50) in assay [1] (Table 1, TG2 inhibitors) was 600 nM; in assay [2] (setting [3]) it was greater than 100000 nM.

In the case of `CCC(CC)CNC(=O)Cn1cccc(NC(=O)[C@H](CCC(=O)C(N)=O)NC(=O)c2cncn2C)c1=O` [Compound E04, (S)—N1-(1-(2-(2-ethylbutylamino)-2-oxoethyl)-2-oxo-1,2-dihydropyridin-3-yl)-2-(1-methyl-1H-imidazole-5-carboxamido)-5-oxohexanediamide], the IC50 in assay [1] (Table 1, TG2 inhibitors) is 100 nM; in assay [2] (setting [3]), greater than 100000 nM.

As for `Cc1nc(Br)sc1C(=O)N[C@@H](CCC(=O)C(N)=O)C(=O)Nc1cccn(CC(=O)NCCC(C)C)c1=O` [Compound E05, (S)-2-(2-bromo-4-methylthiazole-5-carboxamido)-N1-(1-(2-(isopentylamino)-2-oxoethyl)-2-oxo-1,2-dihydropyridin-3-yl)-5-oxohexanediamide], the IC50 is 150 nM in assay [1] (Table 1, TG2 inhibitors) and greater than 100000 nM in assay [2] (setting [3]).

As for `CCC(CC)CNC(=O)Cn1cccc(NC(=O)[C@H](CCC(=O)C(C)=O)NC(=O)c2cncn2C)c1=O` [Compound E74, (S)—N-(1-(1-(2-(2-ethylbutylamino)-2-oxoethyl)-2-oxo-1,2-dihydropyridin-3-ylamino)-1,5,6-trioxoheptan-2-yl)-1-methyl-1H-imidazole-5-carboxamide], in assay [1] (Table 2, TG2 inhibitors), the IC50 came out at 125 nM.
